Test results reported in patent US20110028518A1, “DEXLANSOPRAZOLE PROCESS AND POLYMORPHS” (DR. REDDY'S LABORATORIES LTD., priority 2008, published 2011).
One block for each compound: values may come before it.

Assay: Storage stability studies (Example 27): appearance, PXRD, HPLC purity, impurities and chiral purity
Assay type: physicochemical
Conditions: for Chiral Purity / Highest Impurity / Purity / Sulfide / Sulfone: HPLC
From the text: A high performance liquid chromatography (HPLC) method for measuring the chemical purity of dexlansoprazole or a compound of formula (VII) of the present application, and for determination of their corresponding impurities, involves the use of a YMC-PAK ODS-A 100×4.6, 3 μm or equivalent column.
A high performance liquid chromatography method useful for measuring the enantiomeric purity of dexlansoprazole or a compound of formula (VII) of the present application involves the use of a Chiralpak-IC, 250×4.6 mm or equivalent column.
Products from certain of the above examples and a crystalline dexlansoprazole, prepared according to Example 2 of U.S. Pat. No. 6,462,058, were tested for their storage stabilities. The samples were stored in tied clear polyethylene bags that were placed in sealed black polyethylene bags along with a silica gel desiccant pouch filled with nitrogen, and finally the black bags were placed into triple laminated foil bags along with a silica gel pouch and then sealed and stored in HDPE drum packages under the conditions noted in the following results tables. Samples were analyzed before storage, at intervals during storage, and after storage.
Samples were analyzed by HPLC for chemical purity, for:
a “sulfide” impurity, having a chemical name 2-[[{4-(2,2,2-trifluoroethoxy)-3-methylpyridine-2-yl}methyl]thio]-1H-benzimidazole and the following structure;
a “sulfone” impurity, having a chemical name 2-[[{4-(2,2,2-trifluoroethoxy)-3-methylpyridine-2-yl}methyl]sulfonyl]-1H-benzimidazole and the following structure;
and for chiral purity. Also given in the tables is the concentration of the highest unidentified impurity, as determined by HPLC, and the PXRD analysis result. All percentages given below are expressed on a weight basis.

[1] = Initial Analysis, before storage

Appearance (After 1 Week at 2-8° C.): Cream color
PXRD (After 1 Week at 2-8° C.): Crystalline
Chiral Purity (After 1 Week at 2-8° C.): 88.02%
Highest Impurity (After 1 Week at 2-8° C.): 0.14%
Purity (After 1 Week at 2-8° C.): 95.39%
Sulfide (After 1 Week at 2-8° C.): 2.48%
Sulfone (After 1 Week at 2-8° C.): 1.68%
Appearance (After 1 Week at 25-35° C.): Cream color
PXRD (After 1 Week at 25-35° C.): Crystalline
Chiral Purity (After 1 Week at 25-35° C.): 87.8%
Highest Impurity (After 1 Week at 25-35° C.): 0.14%
Purity (After 1 Week at 25-35° C.): 95.28%
Sulfide (After 1 Week at 25-35° C.): 2.48%
Sulfone (After 1 Week at 25-35° C.): 1.77%
Appearance (After 2 Weeks at 2-8° C.): Cream color
PXRD (After 2 Weeks at 2-8° C.): Crystalline
Chiral Purity (After 2 Weeks at 2-8° C.): 88.49%
Highest Impurity (After 2 Weeks at 2-8° C.): 0.13%
Purity (After 2 Weeks at 2-8° C.): 95.19%
Sulfide (After 2 Weeks at 2-8° C.): 2.36%
Sulfone (After 2 Weeks at 2-8° C.): 1.62%
Appearance (After 2 Weeks at 25-35° C.): Cream color
PXRD (After 2 Weeks at 25-35° C.): Crystalline
Chiral Purity (After 2 Weeks at 25-35° C.): 88.34%
Highest Impurity (After 2 Weeks at 25-35° C.): 0.13%
Purity (After 2 Weeks at 25-35° C.): 95.19%
Sulfide (After 2 Weeks at 25-35° C.): 2.36%
Sulfone (After 2 Weeks at 25-35° C.): 1.62%
Appearance (After 3 Weeks at 2-8° C.): Cream color
PXRD (After 3 Weeks at 2-8° C.): Crystalline
Chiral Purity (After 3 Weeks at 2-8° C.): 88.34%
Highest Impurity (After 3 Weeks at 2-8° C.): 0.14%
Purity (After 3 Weeks at 2-8° C.): 95.65%
Sulfide (After 3 Weeks at 2-8° C.): 2.31%
Sulfone (After 3 Weeks at 2-8° C.): 1.61%
Appearance (After 3 Weeks at 25-35° C.): Cream color
PXRD (After 3 Weeks at 25-35° C.): Crystalline
Chiral Purity (After 3 Weeks at 25-35° C.): 88.27%
Highest Impurity (After 3 Weeks at 25-35° C.): 0.13%
Purity (After 3 Weeks at 25-35° C.): 95.4%
Sulfide (After 3 Weeks at 25-35° C.): 2.39%
Sulfone (After 3 Weeks at 25-35° C.): 1.65%
Appearance [1]: Cream color
PXRD [1]: Crystalline
Chiral Purity [1]: 88.13%
Highest Impurity [1]: 0.15%
Purity [1]: 95.4%
Sulfide [1]: 2.41%
Sulfone [1]: 1.66%
Compound: Cc1c(OCC(F)(F)F)ccnc1C[S@@+]([O-])c1nc2ccccc2[nH]1 [Crystalline Drug, dexlansoprazole]

Appearance (After 1 Week at 2-8° C.): Light yellow
PXRD (After 1 Week at 2-8° C.): Amorphous
Chiral Purity (After 1 Week at 2-8° C.): 99.89%
Highest Impurity (After 1 Week at 2-8° C.): 0.13%
Purity (After 1 Week at 2-8° C.): 97.21%
Sulfide (After 1 Week at 2-8° C.): 1.83%
Sulfone (After 1 Week at 2-8° C.): 0.63%
Appearance (After 1 Week at 25-35° C.): Light yellow
PXRD (After 1 Week at 25-35° C.): Amorphous
Chiral Purity (After 1 Week at 25-35° C.): 99.86%
Highest Impurity (After 1 Week at 25-35° C.): 0.14%
Purity (After 1 Week at 25-35° C.): 97.12%
Sulfide (After 1 Week at 25-35° C.): 1.84%
Sulfone (After 1 Week at 25-35° C.): 0.68%
Appearance (After 2 Weeks at 2-8° C.): Light yellow
PXRD (After 2 Weeks at 2-8° C.): Amorphous
Chiral Purity (After 2 Weeks at 2-8° C.): 99.87%
Highest Impurity (After 2 Weeks at 2-8° C.): 0.11%
Purity (After 2 Weeks at 2-8° C.): 97.21%
Sulfide (After 2 Weeks at 2-8° C.): 1.79%
Sulfone (After 2 Weeks at 2-8° C.): 0.63%
Appearance (After 2 Weeks at 25-35° C.): Light yellow
PXRD (After 2 Weeks at 25-35° C.): Amorphous
Chiral Purity (After 2 Weeks at 25-35° C.): 99.86%
Highest Impurity (After 2 Weeks at 25-35° C.): 0.11%
Purity (After 2 Weeks at 25-35° C.): 97.23%
Sulfide (After 2 Weeks at 25-35° C.): 0.63%
Sulfone (After 2 Weeks at 25-35° C.): 1.78%
Appearance (After 3 Weeks at 2-8° C.): Light yellow
PXRD (After 3 Weeks at 2-8° C.): Amorphous
Chiral Purity (After 3 Weeks at 2-8° C.): 99.85%
Highest Impurity (After 3 Weeks at 2-8° C.): 0.12%
Purity (After 3 Weeks at 2-8° C.): 97.27%
Sulfide (After 3 Weeks at 2-8° C.): 1.77%
Sulfone (After 3 Weeks at 2-8° C.): 0.62%
Appearance (After 3 Weeks at 25-35° C.): Light yellow
PXRD (After 3 Weeks at 25-35° C.): Amorphous
Chiral Purity (After 3 Weeks at 25-35° C.): 99.84%
Highest Impurity (After 3 Weeks at 25-35° C.): 0.15%
Purity (After 3 Weeks at 25-35° C.): 97%
Sulfide (After 3 Weeks at 25-35° C.): 1.79%
Sulfone (After 3 Weeks at 25-35° C.): 0.63%
Appearance [1]: Light yellow
PXRD [1]: Amorphous
Chiral Purity [1]: 99.86%
Highest Impurity [1]: 0.24%
Purity [1]: 97.14%
Sulfide [1]: 1.77%
Sulfone [1]: 0.61%
Compound: Cc1c(OCC(F)(F)F)ccnc1C[S@@+]([O-])c1nc2ccccc2[nH]1 [Example 8, dexlansoprazole]

Appearance (After 1 Week at 2-8° C.): Light brown
PXRD (After 1 Week at 2-8° C.): Amorphous
Chiral Purity (After 1 Week at 2-8° C.): 96.57%
Highest Impurity (After 1 Week at 2-8° C.): 0.09%
Purity (After 1 Week at 2-8° C.): 83.76%
Sulfide (After 1 Week at 2-8° C.): 13.78%
Sulfone (After 1 Week at 2-8° C.): 1.48%
Appearance (After 1 Week at 25-35° C.): Light brown
PXRD (After 1 Week at 25-35° C.): Amorphous
Chiral Purity (After 1 Week at 25-35° C.): 96.56%
Highest Impurity (After 1 Week at 25-35° C.): 0.14%
Purity (After 1 Week at 25-35° C.): 83.03%
Sulfide (After 1 Week at 25-35° C.): 13.83%
Sulfone (After 1 Week at 25-35° C.): 1.55%
Appearance (After 2 Weeks at 2-8° C.): Light brown
PXRD (After 2 Weeks at 2-8° C.): Amorphous
Chiral Purity (After 2 Weeks at 2-8° C.): 96.86%
Highest Impurity (After 2 Weeks at 2-8° C.): 0.17%
Purity (After 2 Weeks at 2-8° C.): 83.6%
Sulfide (After 2 Weeks at 2-8° C.): 13.63%
Sulfone (After 2 Weeks at 2-8° C.): 1.45%
Appearance (After 2 Weeks at 25-35° C.): Light brown
PXRD (After 2 Weeks at 25-35° C.): Amorphous
Chiral Purity (After 2 Weeks at 25-35° C.): 96.49%
Highest Impurity (After 2 Weeks at 25-35° C.): 1.16%
Purity (After 2 Weeks at 25-35° C.): 80.85%
Sulfide (After 2 Weeks at 25-35° C.): 13.8%
Sulfone (After 2 Weeks at 25-35° C.): 1.49%
Appearance (After 3 Weeks at 2-8° C.): Light brown
PXRD (After 3 Weeks at 2-8° C.): Amorphous
Chiral Purity (After 3 Weeks at 2-8° C.): 96.73%
Highest Impurity (After 3 Weeks at 2-8° C.): 0.07%
Purity (After 3 Weeks at 2-8° C.): 83.9%
Sulfide (After 3 Weeks at 2-8° C.): 13.69%
Sulfone (After 3 Weeks at 2-8° C.): 1.5%
Appearance (After 3 Weeks at 25-35° C.): Light brown
PXRD (After 3 Weeks at 25-35° C.): Amorphous
Chiral Purity (After 3 Weeks at 25-35° C.): 96.67%
Highest Impurity (After 3 Weeks at 25-35° C.): 0.8%
Purity (After 3 Weeks at 25-35° C.): 82.07%
Sulfide (After 3 Weeks at 25-35° C.): 13.69%
Sulfone (After 3 Weeks at 25-35° C.): 1.51%
Appearance [1]: Light brown
PXRD [1]: Amorphous
Chiral Purity [1]: 96.59%
Highest Impurity [1]: 0.08%
Purity [1]: 84.42%
Sulfide [1]: 13.43%
Sulfone [1]: 1.45%
Compound: Cc1c(OCC(F)(F)F)ccnc1C[S@@+]([O-])c1nc2ccccc2[nH]1 [Example 16 (A), dexlansoprazole]
